Target: T1, human 11beta-HSD1 (Homo sapiens, UniProt P28845)
T1 construct: expressed in transfected cells; host or cells: HEK293 cells (ATCC CRL-1573), transient transfection with pcDNA3 construct; microsomal fraction used
Test: Microsome assay (cortisone to cortisol conversion, ELISA detection)
Assay type: biochemical
Details: microsomes from HEK293 cells transiently expressing human 11beta-HSD1; cortisone 50-200 nM, NADPH 1 mM, 60 min at 37° C.; read-out: h 11-beta-HSD 1 IC50
Experimental: The cDNA encoding the human 11beta-HSD1 protein was cloned into the expression vector pcDNA3 ([…]). This construct (for details see Alex Odermatt et al.; J Biol Chem., 1999, Vol. 274, Issue 40, 28762-28770) was used to transiently express the protein in HEK293 cells (ATCC number: CRL-1573, described in Graham, F. L., Smiley, J., Russell, W. C., Nairn, R.; (1977)) using lipofectamine. 48h after transfection cells were washed twice with ice-cold PBS (Phosphate buffered Saline). To 1 volume of cell suspension in PBS 2 volumes of ice-cold lysis buffer (50 mM Tris; pH 7.5; 1 mM EDTA; 100 mM NaCl) were added. The cells were lysed by Potter-homogenization (20 strokes). The resulting homogenate was sonicated with a tip sonicator (10% output; 2×30 sec.) and cleared by a low speed centrifugation (10 min×9000 g; 4° C.). The microsomal fraction was collected by a high speed centrifugation (60 min×110,000 g). […]
Microsomes isolated from HEK293 cells transiently expressing human 11beta-HSD1 (for details see above) were incubated in assay buffer (100 mM NaCl; 1 mM EDTA; 1 mM EGTA; 1 mM MgCl; 250 mM Sucrose; 20 mM Tris pH 7.4; Cortisone 50-200 nM and NADPH 1 mM) together with different concentrations of test substances. […] The amount of Cortisol produced in this assay was determined using a commercially available, ELISA-based Cortisol-detection kit (Distributed by Assay Design, Inc.). […]

T1 sequence (P28845 whole entry): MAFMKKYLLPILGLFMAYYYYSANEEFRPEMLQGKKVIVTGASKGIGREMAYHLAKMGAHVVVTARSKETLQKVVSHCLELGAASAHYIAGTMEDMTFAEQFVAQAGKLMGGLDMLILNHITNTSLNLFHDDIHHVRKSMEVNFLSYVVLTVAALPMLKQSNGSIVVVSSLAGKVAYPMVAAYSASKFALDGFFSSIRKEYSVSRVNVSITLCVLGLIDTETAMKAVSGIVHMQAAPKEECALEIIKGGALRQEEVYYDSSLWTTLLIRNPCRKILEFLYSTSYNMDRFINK

IC50 [nM] | SMILES
6 | CC(C)(C)Cc1cc2c(nn1)CCCCCC2 [Example 1, 3-(2,2-Dimethyl-propyl)-5,6,7,8,9,10-hexahydro-cycloocta[c]pyridazine]
14 | CC(C)(C)Cc1cc2c(nn1)[C@@]1(C)CC[C@@H]2C1(C)C [Example 3, (1S,8R)-5-(2,2-Dimethyl-propyl)-1,11,11-trimethyl-3,4-diaza-tricyclo[6.2.1.0^2,7]undeca-2,4,6-triene]

— patent publication US7547697B2, “Alkyl-pyridazine derivatives as 11b-HSD1 inhibitors” (Hoffmann-La Roche Inc., priority 2006, dated 2009)
